Assay [1] deals with […] (SEQ ID NO: 3) amyloid peptide. The assay can be described thus: Amyloid peptide/inhibitor coordination in dilute solution (1 mg/mL), drug captured after pellet washings. The format is binding. As to conditions: FYTGAIIGNYF 1 mg/mL, 150 μM inhibitor loaded, by MS. The protocol: Amyloid Peptide/Inhibitor Coordination Studies in Dilute Solutions. […] Subsequently, 1 mL of DI water was added to wash the pellet (followed by vortexing until obtaining a homogenous dispersion) in order to remove any unbound inhibitor. The samples were then centrifuged again at the same conditions so as to pelletize the amyloid materials, and the supernatant was decanted. Another 1 mL of DI water was then added into the pellet, the mixture was vortexed, and the physically bound inhibitor into the dilute amyloid peptide dispersions was quantified by UV-Vis between 200-600 nm and MS. This step is denoted as wash 1 in our study. Two additional pellet purification cycles were realized with replacement of the decanted volume each time with 1 mL of fresh DI water (denoted as wash 2 and wash 3 respectively). The inhibitor-containing peptides amyloids were normalized at 400 nm over the respective no inhibitor-containing amyloid peptides at the specific washing step, and the measured inhibitor peak values (at 315 nm and 323 nm) were subtracted from that of the amyloid peptide carriers at the same wavelength and concentration. The amount of inhibitors coordinated with the amyloid peptide carriers was quantified based on a calibration curve by both UV-Vis and MS.
The peak at 315 nm was selected for inhibitor quantification due the absence of peaks at that range for both peptides. […] However, the peak at 315 nm was selected for inhibitor quantification, and the following equation was used for both peptides: A315=A315 ([…]/Donepezil)−A315 ([…])
The peak at 323 nm was used for inhibitor quantification due the absence of peaks at that range for both peptides.

Assay [2] relates to […] (SEQ ID NO: 4) amyloid peptide. The format is binding. The following applies: YFTGAIIGNFY 1 mg/mL, 150 μM inhibitor loaded, by MS. On the procedure: Amyloid Peptide/Inhibitor Coordination Studies in Dilute Solutions. […]. As a negative control, 1 mL of 0.1 M PBS buffer was added. The mixtures were vortexed and sonicated to homogenously disperse any solid aggregates and stirred overnight to allow for coordination. The mixtures were transferred to 2 mL Eppendorf tubes and centrifuged for 15 mins at 4,400 rpm (14° C.) to pelletize the amyloid bound-inhibitors, and the supernatant was decanted. Subsequently, 1 mL of DI water was added to wash the pellet (followed by vortexing until obtaining a homogenous dispersion) in order to remove any unbound inhibitor. The samples were then centrifuged again at the same conditions so as to pelletize the amyloid materials, and the supernatant was decanted. Another 1 mL of DI water was then added into the pellet, the mixture was vortexed, and the physically bound inhibitor into the dilute amyloid peptide dispersions was quantified by UV-Vis between 200-600 nm and MS. This step is denoted as wash 1 in our study. Two additional pellet purification cycles were realized with replacement of the decanted volume each time with 1 mL of fresh DI water (denoted as wash 2 and wash 3 respectively). The inhibitor-containing peptides amyloids were normalized at 400 nm over the respective no inhibitor-containing amyloid peptides at the specific washing step, and the measured inhibitor peak values (at 315 nm and 323 nm) were subtracted from that of the amyloid peptide carriers at the same wavelength and concentration. The amount of inhibitors coordinated with the amyloid peptide carriers was quantified based on a calibration curve by both UV-Vis and MS.
. The peak at 315 nm was selected for inhibitor quantification due the absence of peaks at that range for both peptides. […]. However, the peak at 315 nm was selected for inhibitor quantification, and the following equation was used for both peptides: A315=A315 ([…]/Donepezil)−A315 ([…])
[…]. The peak at 323 nm was used for inhibitor quantification due the absence of peaks at that range for both peptides. […].

The test system of assay [3] is […] (SEQ ID NO: 3) amyloid peptide. The assay can be described thus: Coordination at higher peptide concentration (amyloid gel, 5 mg/mL), inhibitor capturing. The class given is binding. The following applies: FYTGAIIGNYF gel 5 mg/mL, 1000 μM inhibitor solution added, by MS. On the procedure: Amyloid Fibrils Preparation and Characterization. For the formation of fibrils, the amyloid peptides were dispersed in DI water at a 10 mg/ml, vortexed, heated at 60° C. for 30 sec, and sonicated for 15 mins (this cycle was repeated 10 times overall), and finally left overnight at room temperature to form a hydrogel. […] That was confirmed with Field Emission Scanning Electron Microscopy (FESEM) and Congo Red staining (CR).
Coordination Studies at Higher Peptide Concentrations and Inhibitor Capturing. […] (SEQ ID NO: 4) or […] (SEQ ID NO: 3) amyloid peptide gels (10 mg/mL, 1 mL volume) and was left to physically complex under stirring overnight (the final peptide concentration was diluted to 5 mg/mL). A control using 1 mL of 0.1 M PBS (no inhibitor) was also prepared. The complexed amyloid/inhibitor materials were then transferred to 5 mL conical Eppendorf tubes, and centrifuged for 15 mins at 4,400 rpm (14° C.). The supernatant was decanted, and 2 mL of DI water were subsequently added to wash the pellet (followed by vortexing until obtaining a homogenous dispersion) in order to remove any unbound inhibitor. The samples were then centrifuged again at the same conditions so as to pelletize the amyloid materials, and the supernatant was decanted. Another 2 mL of DI water were then added into the pellet, the mixture was vortexed, and the physically bound inhibitor into the amyloid peptides was quantified by UV-Vis between 200-600 nm and MS. This step is denoted as wash 1 in our study. Two additional pellet purification cycles were realized with replacement of the decanted volume each time with 2 mL of fresh DI water (denoted as wash 2 and wash 3 respectively). The inhibitor-containing amyloid peptides were normalized at 400 nm over the respective no inhibitor-containing ones at the specific washing step.

Assay [4] relates to […] (SEQ ID NO: 4) amyloid peptide. The class given is binding. The following applies: YFTGAIIGNFY gel 5 mg/mL, 1000 μM inhibitor solution added, by MS. The protocol:
Amyloid Fibrils Preparation and Characterization. For the formation of fibrils, the amyloid peptides were dispersed in DI water at a 10 mg/ml, vortexed, heated at 60° C. for 30 sec, and sonicated for 15 mins (this cycle was repeated 10 times overall), and finally left overnight at room temperature to form a hydrogel.
A control using 1 mL of 0.1 M PBS (no inhibitor) was also prepared. The complexed amyloid/inhibitor materials were then transferred to 5 mL conical Eppendorf tubes, and centrifuged for 15 mins at 4,400 rpm (14° C.). The supernatant was decanted, and 2 mL of DI water were subsequently added to wash the pellet (followed by vortexing until obtaining a homogenous dispersion) in order to remove any unbound inhibitor. The samples were then centrifuged again at the same conditions so as to pelletize the amyloid materials, and the supernatant was decanted. Another 2 mL of DI water were then added into the pellet, the mixture was vortexed, and the physically bound inhibitor into the amyloid peptides was quantified by UV-Vis between 200-600 nm and MS. This step is denoted as wash 1 in our study. Two additional pellet purification cycles were realized with replacement of the decanted volume each time with 2 mL of fresh DI water (denoted as wash 2 and wash 3 respectively). The inhibitor-containing amyloid peptides were normalized at 400 nm over the respective no inhibitor-containing ones at the specific washing step.

A further assay addresses AChE (Homo sapiens, UniProt P22303). The following applies: in vitro, Ellman's assay, among marketed AD drugs; cited from earlier work.

Each structure is given as a SMILES string. Where two headings read alike, the source gives them in different places.

AChE, sequence (P22303 32-614): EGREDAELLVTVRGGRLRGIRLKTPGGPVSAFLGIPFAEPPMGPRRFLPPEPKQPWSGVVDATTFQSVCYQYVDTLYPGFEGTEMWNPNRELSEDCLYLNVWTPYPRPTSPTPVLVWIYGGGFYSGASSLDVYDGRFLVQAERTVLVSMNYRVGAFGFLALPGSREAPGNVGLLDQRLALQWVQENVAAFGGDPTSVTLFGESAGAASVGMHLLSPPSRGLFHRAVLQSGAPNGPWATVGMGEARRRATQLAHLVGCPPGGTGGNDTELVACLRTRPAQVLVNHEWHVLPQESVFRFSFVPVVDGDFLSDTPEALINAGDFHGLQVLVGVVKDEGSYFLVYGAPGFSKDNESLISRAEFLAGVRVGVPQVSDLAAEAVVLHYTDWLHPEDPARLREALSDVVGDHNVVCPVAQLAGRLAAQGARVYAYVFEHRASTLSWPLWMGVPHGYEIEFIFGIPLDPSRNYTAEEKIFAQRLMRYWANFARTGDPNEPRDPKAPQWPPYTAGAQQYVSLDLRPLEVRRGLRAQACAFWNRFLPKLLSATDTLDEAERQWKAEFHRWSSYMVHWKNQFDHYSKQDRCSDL

As for `CC12CC3CC(C)(C1)CC(N)(C3)C2` [memantine], the “AD compound captured, Wash 1” value in assay [1] (1st pellet wash) is 18 ± 3 µM; in assay [2] (1st pellet wash), 8 ± 1 µM; in assay [3] (1st pellet wash), 32 ± 2 µM; in assay [4] (1st pellet wash) it was 21 ± 1 µM. The “AD compound captured, Wash 2” value in assay [1] (2nd pellet wash) amounted to 5 ± 2 µM; in assay [2] (2nd pellet wash) it was 3 ± 1 µM; in assay [3] (2nd pellet wash) it was 16 ± 2 µM; in assay [4] (2nd pellet wash, room temperature), 10 ± 1 µM. Also, the “AD compound captured, Wash 3” value in assay [1] (3rd pellet wash) came out at 4 ± 2 µM; in assay [2] (3rd pellet wash) it was 2 ± 1 µM; in assay [3] (3rd pellet wash), 12 ± 3 µM; in assay [4] (3rd pellet wash, room temperature), 8 ± 1 µM. Besides, at AChE, the “inhibition towards AChE” value is “negligible inhibition”.

These data come from US12178878B2, “Amyloid peptide scaffolds coordinate with Alzheimer's disease drugs” (The University of Massachusetts, priority 2018, dated 2024).
